Series [1] in a line: Toxicity against human type A red blood cells assessed as hemolytic activity after 1hr. In kind it is cell-based, Erythrocyte. The following applies: read-out: HD50.
Series [2] in a line: Toxicity against human type A red blood cells assessed as hemolytic activity at 80 uM after 1 ht. Type of series: cell-based, Erythrocyte. The following applies: read-out: Activity.

Bridge positions count the residues as written; N and C are the ends. Peptide text beside a SMILES is read from it.

Regarding `CC(C)C[C@@H]1NC(=O)CNC(=O)[C@H](CC(N)=O)NC(=O)[C@H](CCCNC(=N)N)NC(=O)[C@H]([C@@H](C)O)NC(=O)[C@@H]2CSSC[C@@H]3NC(=O)[C@H]([C@@H](C)O)NC(=O)CNC(=O)CNC(=O)[C@H](C(C)C)NC(=O)[C@@H]4CSSC[C@H](NC(=O)[C@H]([C@@H](C)O)NC(=O)[C@H](CSSC[C@H](NC(=O)[C@H](C(C)C)NC(=O)[C@@H]5CCCN5C1=O)C(=O)NCC(=O)N[C@@H](CCC(=O)O)C(=O)N[C@@H]([C@@H](C)O)C(=O)N4)NC(=O)CNC(=O)[C@@H]1CCCN1C(=O)[C@H]([C@@H](C)O)NC(=O)[C@H](CC(N)=O)NC3=O)C(=O)N[C@@H](CO)C(=O)N[C@@H](Cc1c[nH]c3ccccc13)C(=O)N1CCC[C@H]1C(=O)N[C@@H](C(C)C)C(=O)N2` [KALATA B1], the HC50 at 1 h in series [1] turned out to be 12.7 µM.
Take `CC[C@H](C)[C@@H]1NC(=O)[C@H]([C@@H](C)O)NC(=O)CNC(=O)CNC(=O)[C@H](CC(N)=O)NC(=O)[C@H]([C@@H](C)O)NC(=O)CNC(=O)[C@H](Cc2ccc(O)cc2)NC(=O)[C@@H]2CSSC[C@@H]3NC(=O)[C@H]([C@@H](C)O)NC(=O)CNC(=O)[C@H](CC(C)C)NC(=O)[C@H](Cc4ccccc4)NC(=O)[C@@H]4CSSC[C@H](NC(=O)[C@H](CO)NC(=O)[C@H](CSSC[C@H](NC(=O)[C@H](CC(=O)O)NC(=O)[C@H](Cc5ccccc5)NC1=O)C(=O)NCC(=O)N[C@@H](CCC(=O)O)C(=O)N[C@@H](CO)C(=O)N4)NC(=O)CNC(=O)[C@H](CCCCN)NC(=O)[C@H]([C@@H](C)O)NC(=O)[C@H](Cc1ccc(O)cc1)NC3=O)C(=O)NCC(=O)N[C@@H](CCC(=O)O)C(=O)N[C@@H](Cc1c[nH]c3ccccc13)C(=O)N[C@@H](CCCCN)C(=O)N[C@@H](CC(C)C)C(=O)N2` [TRICYCLON A] (cyclo(CFLGTCYTKGCSCGEWKLCYGTNGGTIFDCGES); disulfide 1-13, 6-19, 11-30): in series [2], the hemolysis at 1 h, 80 µM came to 2%.
For the compound `CC[C@H](C)[C@@H]1NC(=O)CNC(=O)[C@H](CC(N)=O)NC(=O)[C@H](Cc2ccc(O)cc2)NC(=O)[C@@H]2CSSC[C@@H]3NC(=O)[C@@H]4CCCN4C(=O)[C@H]([C@@H](C)CC)NC(=O)[C@H](Cc4c[nH]c5ccccc45)NC(=O)[C@H](C(C)C)NC(=O)[C@@H]4CSSC[C@H](NC(=O)[C@H](CO)NC(=O)[C@H](CSSC[C@H](NC(=O)[C@@H]5CCCN5C1=O)C(=O)N[C@@H](C)C(=O)N[C@@H](CCC(=O)O)C(=O)N[C@@H](CO)C(=O)N4)NC(=O)CNC(=O)[C@H](CC(C)C)NC(=O)[C@H](CC(C)C)NC(=O)[C@H](C)NC(=O)[C@H]([C@@H](C)O)NC(=O)[C@H](C(C)C)NC(=O)[C@H]([C@@H](C)O)NC3=O)C(=O)N[C@@H](CO)C(=O)N[C@@H](CC(N)=O)C(=O)N[C@@H](CC(N)=O)C(=O)N[C@@H](C(C)C)C(=O)N2` [cycloviolacin H4] (cyclo(AESCVWIPCTVTALLGCSCSNNVCYNGIPC); disulfide 4-19, 9-24, 17-30), in series [1], the HC50 at 1 h amounted to 5.5 µM.

The values are drawn from ChEMBL document CHEMBL1157218, “Cycloviolacin H4, a hydrophobic cyclotide from Viola hederaceae” (J Nat Prod, 2006).
